Data published in PMC4281095 (Journal of Medicinal Chemistry, 2014).

Assays:
CpIMPDH [1] = target: T1, CpIMPDH (Cryptosporidium parvum, UniProt Q8T6T2); assay: CpIMPDH inhibition, NADH production monitored by fluorescence; details: for CpIMPDH inhibition, result in words: qualitative statement; for fold loss of CpIMPDH potency / inhibition: relative to 8k; for fold increase in CpIMPDH activity: relative to 8a
T1 sequence (Q8T6T2 1-400): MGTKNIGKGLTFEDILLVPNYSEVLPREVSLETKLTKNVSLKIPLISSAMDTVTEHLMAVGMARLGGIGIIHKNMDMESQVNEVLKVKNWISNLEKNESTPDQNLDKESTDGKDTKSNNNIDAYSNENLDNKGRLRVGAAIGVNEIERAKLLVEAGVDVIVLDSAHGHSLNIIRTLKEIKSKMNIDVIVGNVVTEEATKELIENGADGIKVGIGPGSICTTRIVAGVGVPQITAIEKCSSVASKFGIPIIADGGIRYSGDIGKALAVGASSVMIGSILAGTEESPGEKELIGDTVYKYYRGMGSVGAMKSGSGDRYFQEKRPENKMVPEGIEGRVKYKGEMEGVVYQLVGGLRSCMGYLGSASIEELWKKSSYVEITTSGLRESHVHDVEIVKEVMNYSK

CpIMPDH [2] = target: T1, CpIMPDH; details: read-out: CpIMPDH IC50; cited from earlier work
hIMPDH1 = details: read-out: hIMPDH1 Ki; cited from earlier work
hIMPDH2 = hIMPDH2 (Homo sapiens, UniProt P12268); assay: Assessment of hIMPDH2 inhibition, NADH production; type: biochemical; details: read-out: hIMPDH2 inhibition

Structure (SMILES)	CpIMPDH inhibition, result in words (CpIMPDH [1])	further results
O=C(Cn1ncc2c(=O)oc3ccccc3c21)Nc1ccccc1Cl [8c]	no inhibitory activity	
COc1c(C)c2c(c(O)c1C/C=C(\C)CCC(=O)O)C(=O)OC2 [mycophenolic acid]		IC50 (CpIMPDH [2]): ~10 µM; Ki (hIMPDH1): 0.033 µM
COc1cccc(NC(=O)Cn2ncc3c(=O)oc4ccccc4c32)c1 [8a, 4-oxo-N-(3-methoxyphenyl)-[1]benzopyrano[4,3-c]pyrazole-1(4H)-acetamide]		inhibition at 5 µM (hIMPDH2): < 20%
COc1cc(NC(=O)Cn2ncc3c2-c2ccccc2OC3)ccc1Cl [13e]		fold loss of CpIMPDH potency / inhibition (CpIMPDH [1]): 3 fold
O=C(Cn1ncc2c(=O)oc3ccccc3c21)Nc1cccc(Cl)c1 [8b]	loss of inhibition	
O=C(Cn1ncc2c(=O)oc3ccccc3c21)Nc1ccc2[nH]ccc2c1 [13c]	only weak or no inhibitory activity	
COc1cc(N(C)C(=O)Cn2ncc3c(=O)oc4ccccc4c32)ccc1Cl [8l]	loss of activity	
O=C(Cn1ncc2c(=O)oc3ccccc3c21)Nc1ccc(C(F)(F)F)cc1 [8e]		fold increase in CpIMPDH activity (CpIMPDH [1]): 3 fold
COc1ccc(NC(=O)Cn2ncc3c(=O)oc4ccccc4c32)cc1OC [8i]	loss of enzyme inhibition	
COc1cc(NC(=O)C(C)n2ncc3c(=O)oc4ccccc4c32)ccc1Cl (centres unmarked) [8m]		fold loss of CpIMPDH potency / inhibition (CpIMPDH [1]): 3 fold
O=C(Cn1ncc2c(=O)oc3ccccc3c21)Nc1ccc(F)cc1 [8d]		fold increase in CpIMPDH activity (CpIMPDH [1]): 3 fold
O=C(Cn1ncc2c(=O)oc3ccccc3c21)Nc1ccc(Cl)cc1Cl [8g]	no inhibition activity	
O=C(Cn1ncc2c(=O)oc3ccccc3c21)Nc1ccc2[nH]cnc2c1 [13a]	only weak or no inhibitory activity	
